Measured values taken from patent US20130267474A1, “NOVEL PHYTOCHEMICALS FROM EXTRACTS OF MAPLE SYRUPS AND MAPLE TREES AND USES THEREOF” (UNIVERSITY OF RHODE ISLAND, priority 2010, published 2013).
Read-outs that look alike come from different tables or passages of the source.

What was measured:
[1] = test system: CCD-18Co cells; experiment: Flow cytometry analysis of cell cycle; assay type: cell-based, human; conditions: 48 and 72 h
Experimental: (§1) (2×10^5) are collected after the corresponding experimental periods, fixed in ice-cold ethanol:PBS (70:30, v/v) for 30 min at 4° C., further resuspended in PBS with 100 μg ml^−1 RNAse and 40 μg ml^−1 propidium iodide, and then incubated at 37° C. for 30 min. The DNA content (10,000 cells) is analyzed using a FACS Calibur instrument equipped with FACStation running FACS Calibur software (BD Biosciences, San Diego, Calif., USA). The analyses of cell cycle distribution are performed in triplicate for each treatment (tested at 50 μg/mL concentrations). The coefficient of variation, according to the ModFit LT Version 2 acquisition software package (Verity Software House, Topsham, Me., USA), is always less than 5%.
as §1, with “Cells (2×10^5)” for “(2×10^5)”, “μg/mL” for “μg ml^−1”, “and” for “and then”, “min.” for “min. The”, “analysed” for “analyzed”, “treatment.” for “treatment (tested at 50 μg/mL concentrations).”

[2] = test system: colon cancer (HCT-116, Caco-2 and HT-29) cell lines; experiment: MTS antiproliferative assay, statements pooled over the colon cancer cell lines
[3] = test system: HT-29 (human colon adenocarcinoma); experiment: MTS cytotoxicity / antiproliferative assay; assay type: cell-based; conditions: Homo sapiens
[4] = test system: HCT-116 (human colon carcinoma); experiment: MTS cytotoxicity / antiproliferative assay; assay type: cell-based; conditions: Homo sapiens
[5] = test system: Caco-2 (human epithelial colorectal adenocarcinoma); experiment: MTS cytotoxicity / antiproliferative assay; assay type: cell-based; conditions: Homo sapiens
[6] = test system: CCD-18Co (normal human colon fibroblasts); experiment: MTS cytotoxicity / antiproliferative assay; assay type: cell-based; conditions: Homo sapiens, CCD-18Co

## COc1cc([C@@H]2c3cc4c(cc3[C@@H](O[C@@H]3O[C@@H]5CO[C@@H](C)O[C@H]5[C@H](O)[C@H]3O)[C@H]3COC(=O)[C@H]23)OCO4)cc(OC)c1O [Etoposide, reference compound]
[1]
  changes in cell cycle compared with control cells: slight but significant changes in the S phase
[2]; Homo sapiens, read-out: IC50 (HT29, HCT116 and Caco-2), positive control, footnote of Table 16
  IC50: 10 to 20 µM
[2]; Homo sapiens, read-out: IC50 of positive control, MTS, HT-29, HCT116 and Caco-2
  IC50: 15 to 25 µM
[2]; read-out: IC50 of positive control, MTS, HT-29, HCT116 and Caco-2
  IC50: 10 to 20 µM
[3]; HT-29, 48 h, read-out: HT-29 48 h (IC50), 48 h
  IC50: 13.4 µM
[3]; HT-29, 48 h, read-out: HT-29 48 h(IC50), Table 6 maple compounds, 48 h, unit inferred
  IC50: 21.2 µM
[3]; HT-29, 48 h, read-out: HT-29 48 h(IC50), Table 7 maple extracts, 48 h, unit inferred
  IC50: 13.4 µM
[3]; HT-29, 72 h, 72 h, read-out: HT-29 72 h (IC50)
  IC50: 7.3 µM
[3]; HT-29, 72 h, Table 6 maple compounds, 72 h, unit inferred, read-out: HT-29 72 h(IC50)
  IC50: 12.9 µM
[3]; HT-29, 72 h, Table 7 maple extracts, 72 h, unit inferred, read-out: HT-29 72 h(IC50)
  IC50: 7.3 µM
[4]; HCT-116, 48 h, read-out: HCT-116 48 h (IC50), 48 h
  IC50: 26.9 µM
[4]; HCT-116, 48 h, read-out: HCT-116 48 h(IC50), Table 6 maple compounds, 48 h, unit inferred
  IC50: 28.5 µM
[4]; HCT-116, 72 h, 72 h, read-out: HCT-116 72 h (IC50)
  IC50: 14.4 µM
[4]; HCT-116, 72 h, Table 6 maple compounds, 72 h, unit inferred, read-out: HCT-116 72 h(IC50)
  IC50: 21.9 µM
[4]; HCT-116, 72 h, Table 7 maple extracts, 72 h, unit inferred, read-out: HCT-116 72 h(IC50)
  IC50: 14.4 µM
[5]; Caco-2, 48 h, read-out: Caco-2 48 h (IC50), 48 h
  IC50: 18.9 µM
[5]; Caco-2, 48 h, read-out: Caco-2 48 h(IC50), Table 6 maple compounds, 48 h, unit inferred
  IC50: 14.3 µM
[5]; Caco-2, 72 h, 72 h, read-out: Caco-2 72 h (IC50)
  IC50: 16.1 µM
[5]; Caco-2, 72 h, Table 6 maple compounds, 72 h, unit inferred, read-out: Caco-2 72 h(IC50)
  IC50: 12.3 µM
[5]; Caco-2, 72 h, Table 7 maple extracts, 72 h, unit inferred, read-out: Caco-2 72 h(IC50)
  IC50: 16.1 µM
[6]; 48 h, read-out: CCD-18Co 48 h (IC50), 48 h
  IC50: 48.7 µM
[6]; 48 h, read-out: CCD-18Co 48 h(IC50), Table 6 maple compounds, 48 h, unit inferred
  IC50: 45.1 µM
[6]; 72 h, Table 6 maple compounds, 72 h, unit inferred, read-out: CCD-18Co 72 h(IC50)
  IC50: 42.4 µM
[6]; 72 h, read-out: CCD-18Co 72 h (IC50)
  IC50: 43.9 µM
[6]; CCD-18Co cells, read-out: IC50 of positive control, MTS
  IC50: 40 to 45 µM
[6]; positive control, footnote of Table 16, read-out: IC50 for the CCD-18Co cells
  IC50: 30 to 40 µM
